Assay results from patent US20100272648A1, “Methods of Identifying Improved NMDA Receptor Antagonists” (priority 2008, published 2010).
Like-named read-outs stand apart in the source and are kept apart here.

How the values were obtained:
[1] = system: dyskinesias; details: add-on therapy with L-DOPA, patients; cited from earlier work
[2] = biological target: rat NMDA-NR2B containing receptors (Rattus norvegicus, UniProt P35439+Q00960); experiment: pH potency boost, Xenopus oocyte assay, rat receptor cDNA; assay type: cell-based; details: pH 6.9 vs 7.6, rat receptors
rat NMDA-NR2B containing receptors, sequence (Q00960 27-1482, other chains not shown): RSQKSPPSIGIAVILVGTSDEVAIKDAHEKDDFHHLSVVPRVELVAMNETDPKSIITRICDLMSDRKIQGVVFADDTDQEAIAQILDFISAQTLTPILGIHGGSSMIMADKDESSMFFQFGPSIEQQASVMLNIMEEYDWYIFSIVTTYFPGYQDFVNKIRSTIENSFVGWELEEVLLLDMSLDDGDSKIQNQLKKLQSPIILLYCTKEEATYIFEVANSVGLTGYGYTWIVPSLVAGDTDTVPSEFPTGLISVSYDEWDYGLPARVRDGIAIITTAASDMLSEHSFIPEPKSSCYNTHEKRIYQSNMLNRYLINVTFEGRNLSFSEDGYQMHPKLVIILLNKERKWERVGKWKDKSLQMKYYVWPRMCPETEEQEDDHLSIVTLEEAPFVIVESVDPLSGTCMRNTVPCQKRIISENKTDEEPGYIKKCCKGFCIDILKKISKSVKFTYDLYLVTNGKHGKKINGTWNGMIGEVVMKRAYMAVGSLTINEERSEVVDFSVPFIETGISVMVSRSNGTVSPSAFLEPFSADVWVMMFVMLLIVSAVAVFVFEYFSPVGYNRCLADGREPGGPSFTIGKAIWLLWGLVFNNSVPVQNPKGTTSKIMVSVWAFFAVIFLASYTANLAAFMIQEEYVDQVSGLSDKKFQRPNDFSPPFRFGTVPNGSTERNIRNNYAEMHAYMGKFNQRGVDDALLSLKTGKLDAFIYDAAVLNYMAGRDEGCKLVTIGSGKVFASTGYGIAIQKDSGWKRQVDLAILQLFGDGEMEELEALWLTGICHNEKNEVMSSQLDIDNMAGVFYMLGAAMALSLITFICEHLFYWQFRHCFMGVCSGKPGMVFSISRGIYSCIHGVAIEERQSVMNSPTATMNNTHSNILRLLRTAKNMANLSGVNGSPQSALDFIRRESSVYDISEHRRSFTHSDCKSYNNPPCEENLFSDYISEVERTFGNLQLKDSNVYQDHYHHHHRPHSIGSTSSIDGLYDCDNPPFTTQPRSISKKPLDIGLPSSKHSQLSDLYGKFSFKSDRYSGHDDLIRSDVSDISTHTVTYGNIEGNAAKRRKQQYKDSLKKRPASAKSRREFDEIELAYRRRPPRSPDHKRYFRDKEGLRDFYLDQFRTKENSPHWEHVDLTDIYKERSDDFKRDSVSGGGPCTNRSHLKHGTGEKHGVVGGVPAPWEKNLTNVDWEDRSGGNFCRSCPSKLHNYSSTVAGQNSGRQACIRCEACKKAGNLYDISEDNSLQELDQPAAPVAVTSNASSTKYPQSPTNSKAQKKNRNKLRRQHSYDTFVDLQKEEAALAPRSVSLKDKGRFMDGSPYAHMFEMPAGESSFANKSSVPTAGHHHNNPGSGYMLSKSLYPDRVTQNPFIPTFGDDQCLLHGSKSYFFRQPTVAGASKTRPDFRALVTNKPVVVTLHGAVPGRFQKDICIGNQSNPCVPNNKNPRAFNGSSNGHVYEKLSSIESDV
Text: (§1) In vitro transcribed cRNA was purified using standard methods.
(§2) Preparation of pH-dependent NMDA receptor antagonists for testing.
(§3) Voltage-clamp recordings from Xenopus oocytes.
(§4) Determination of a pH dependent potency boost in antagonism, defined as the […].

[3] = biological target: human NMDA-NR2B containing receptors (Homo sapiens, UniProt Q05586+Q13224); experiment: pH potency boost, Xenopus oocyte assay, human receptor cDNA; assay type: cell-based; details: for HUMAN Boost: pH potency boost, pH 6.9 vs 7.6, human receptors; for Absolute Boost Difference: rat versus human pH potency boost
human NMDA-NR2B containing receptors, sequence (Q13224 27-1484, other chains not shown): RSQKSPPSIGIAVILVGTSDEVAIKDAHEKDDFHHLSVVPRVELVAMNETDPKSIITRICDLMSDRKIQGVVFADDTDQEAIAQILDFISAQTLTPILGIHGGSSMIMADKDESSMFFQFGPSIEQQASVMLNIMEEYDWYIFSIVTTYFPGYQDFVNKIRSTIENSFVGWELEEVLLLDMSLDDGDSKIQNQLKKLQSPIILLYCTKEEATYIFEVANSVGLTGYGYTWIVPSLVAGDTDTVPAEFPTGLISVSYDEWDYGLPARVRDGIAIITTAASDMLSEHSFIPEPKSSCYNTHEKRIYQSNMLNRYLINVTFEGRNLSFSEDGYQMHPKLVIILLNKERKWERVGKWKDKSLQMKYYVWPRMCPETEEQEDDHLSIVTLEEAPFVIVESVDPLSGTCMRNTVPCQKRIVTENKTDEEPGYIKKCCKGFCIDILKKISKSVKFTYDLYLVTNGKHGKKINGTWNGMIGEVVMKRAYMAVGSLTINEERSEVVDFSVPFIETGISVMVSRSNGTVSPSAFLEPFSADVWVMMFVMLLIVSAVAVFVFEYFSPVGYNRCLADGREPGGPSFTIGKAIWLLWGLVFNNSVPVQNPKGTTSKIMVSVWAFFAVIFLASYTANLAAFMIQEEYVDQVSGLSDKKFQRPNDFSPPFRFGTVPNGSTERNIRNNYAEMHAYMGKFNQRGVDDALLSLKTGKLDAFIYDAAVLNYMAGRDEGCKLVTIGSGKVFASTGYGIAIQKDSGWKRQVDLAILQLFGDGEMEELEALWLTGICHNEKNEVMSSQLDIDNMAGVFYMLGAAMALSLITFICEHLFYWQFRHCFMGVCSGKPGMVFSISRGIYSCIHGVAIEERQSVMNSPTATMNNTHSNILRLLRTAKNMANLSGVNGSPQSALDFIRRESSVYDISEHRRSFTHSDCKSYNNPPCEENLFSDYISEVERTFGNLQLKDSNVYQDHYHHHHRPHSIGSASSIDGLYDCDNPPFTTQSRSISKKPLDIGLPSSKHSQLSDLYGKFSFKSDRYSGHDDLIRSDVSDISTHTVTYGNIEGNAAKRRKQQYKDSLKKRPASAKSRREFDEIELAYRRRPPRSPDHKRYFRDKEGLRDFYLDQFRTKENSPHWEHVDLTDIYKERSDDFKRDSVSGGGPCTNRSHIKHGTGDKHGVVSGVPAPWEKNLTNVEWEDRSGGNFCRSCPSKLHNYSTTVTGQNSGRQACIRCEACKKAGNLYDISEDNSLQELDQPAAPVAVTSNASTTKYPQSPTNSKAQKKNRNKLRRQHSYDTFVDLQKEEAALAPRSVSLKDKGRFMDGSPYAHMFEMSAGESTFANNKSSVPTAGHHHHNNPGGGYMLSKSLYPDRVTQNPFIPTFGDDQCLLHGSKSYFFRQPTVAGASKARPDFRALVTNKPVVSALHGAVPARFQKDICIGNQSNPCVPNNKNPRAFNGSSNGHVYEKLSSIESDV
Text: as §1, §2, §3, §4

[4] = system: infarct volume; details: rats, after middle cerebral artery occlusion; cited from earlier work
[5] = system: infarct volume; details: cats, highest dose tested; cited from earlier work
[6] = system: infarct volume; details: cats and rats, highest dose tested; cited from earlier work
[7] = biological target: NR1/NR2A receptors (Rattus norvegicus, UniProt P35439+Q00959); experiment: In vitro potency boost pH 6.9 vs 7.6 (NR1/NR2A, oocytes) versus infarct volume (FIG. 4); details: potency boost pH 6.9 vs 7.6 versus infarct volume
NR1/NR2A receptors, sequence (Q00959 23-1464, other chains not shown): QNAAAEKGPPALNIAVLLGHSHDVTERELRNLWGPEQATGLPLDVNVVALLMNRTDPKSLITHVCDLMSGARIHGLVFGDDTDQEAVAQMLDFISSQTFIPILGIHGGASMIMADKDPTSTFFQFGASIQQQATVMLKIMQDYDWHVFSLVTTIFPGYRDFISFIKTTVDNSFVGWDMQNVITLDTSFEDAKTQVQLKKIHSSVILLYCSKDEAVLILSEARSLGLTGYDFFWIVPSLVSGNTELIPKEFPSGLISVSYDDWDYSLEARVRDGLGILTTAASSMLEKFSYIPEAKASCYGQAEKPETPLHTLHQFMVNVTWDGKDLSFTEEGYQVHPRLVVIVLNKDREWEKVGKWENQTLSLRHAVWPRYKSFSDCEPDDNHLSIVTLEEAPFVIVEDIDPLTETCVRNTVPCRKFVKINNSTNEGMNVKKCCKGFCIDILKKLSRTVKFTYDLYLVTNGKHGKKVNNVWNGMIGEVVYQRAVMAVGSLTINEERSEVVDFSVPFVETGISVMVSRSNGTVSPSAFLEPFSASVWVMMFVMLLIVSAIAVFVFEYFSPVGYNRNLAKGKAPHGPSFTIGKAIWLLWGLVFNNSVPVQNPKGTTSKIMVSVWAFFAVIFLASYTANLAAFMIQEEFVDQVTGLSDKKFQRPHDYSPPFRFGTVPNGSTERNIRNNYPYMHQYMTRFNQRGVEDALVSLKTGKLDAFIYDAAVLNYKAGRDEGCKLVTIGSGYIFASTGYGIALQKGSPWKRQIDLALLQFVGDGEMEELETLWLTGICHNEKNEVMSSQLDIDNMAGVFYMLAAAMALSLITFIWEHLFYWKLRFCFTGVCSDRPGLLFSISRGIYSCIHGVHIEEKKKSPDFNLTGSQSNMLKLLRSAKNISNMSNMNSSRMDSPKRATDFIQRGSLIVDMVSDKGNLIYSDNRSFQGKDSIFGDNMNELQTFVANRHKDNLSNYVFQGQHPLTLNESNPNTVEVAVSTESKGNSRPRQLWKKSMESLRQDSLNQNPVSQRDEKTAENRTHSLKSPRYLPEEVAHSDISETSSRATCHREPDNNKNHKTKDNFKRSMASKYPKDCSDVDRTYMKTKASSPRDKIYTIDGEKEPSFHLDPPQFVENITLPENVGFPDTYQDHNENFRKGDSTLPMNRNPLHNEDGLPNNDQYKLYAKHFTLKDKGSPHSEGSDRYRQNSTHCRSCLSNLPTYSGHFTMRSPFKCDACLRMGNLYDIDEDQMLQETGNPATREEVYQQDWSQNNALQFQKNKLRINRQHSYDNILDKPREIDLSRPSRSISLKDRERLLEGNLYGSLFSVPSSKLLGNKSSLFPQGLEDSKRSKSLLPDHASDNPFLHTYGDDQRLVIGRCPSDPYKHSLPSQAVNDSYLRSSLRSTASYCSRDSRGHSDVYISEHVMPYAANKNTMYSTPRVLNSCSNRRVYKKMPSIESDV
Experimental: Expression of NMDA receptors in Xenopus oocytes. cRNA was synthesized from linearized template cDNA for NMDA receptor subunits (NR1-1a, NR2B, NR2A) according to manufacturer specifications (Ambion:). cDNAs used corresponded to GenBank numbers U08261 and U11418 (NR1-1a), AF001423 and CD13211 (NR2A), U11419 (NR2B). Briefly, cDNA was linearized with an appropriate restriction enzyme downstream of the coding region, purified, and incubated with RNA polymerase and appropriate concentrations of ribonucleotides. In vitro transcribed cRNA was purified using standard methods. Quality of synthesized cRNA was assessed by gel electrophoresis, and quantity was estimated by spectroscopy and gel electrophoresis. Stage V and VI oocytes were surgically removed from the ovaries of large, well-fed and healthy Xenopus laevis anesthetized with 3-amino-benzoic acid ethyl ester (1 gm/l). Clusters of oocytes were incubated with 292 Uml Worthington (Freehold, N.J.) type IV collagenase or 1.3 mg/ml collagenase (Life Technologies, Gaithersburg, Md.; 17018-029) for 2 hr in Ca2+-free solution comprised of (in mM) 115 NaCl, 2.5 KCl, and 10 HEPES, pH 7.5, with slow agitation to remove the follicular cell layer. […]

[8] = Locomotor activity of rats (light beam breaks); assay type: in vivo, Sprague-Dawley rats; details: IP, varying doses (3-300 mg/kg, compound-specific), monitored 2 hours after injection
Experimental: Locomotor activity was monitored after injection for 2 hours.

| Compound | RAT Boost [2] | HUMAN Boost [3] | Absolute Boost Difference [3] | other results |
| --- | --- | --- | --- | --- |
| NC12CC3CC(CC(C3)C1)C2 [Amantadine] | – | – | – | reduction of severity of dyskinesias [1]: 60% |
| CS(=O)(=O)Nc1ccc(OCC(O)CN(CCc2ccc(Cl)c(Cl)c2)Cc2ccccc2)cc1 (stereo not drawn) [Compound 93-30] | 7.4 | 21.0 | 13.6 | – |
| CCCCN(CCc1ccc(Cl)c(Cl)c1)CC(O)COc1ccc(NS(C)(=O)=O)cc1 (stereo not drawn) [Compound 93-88] | 6.3 | 22.1 | 15.8 | – |
| CS(=O)(=O)Nc1ccc(OCC(O)CN2CCN(c3ccc(F)c(F)c3)CC2)cc1 (stereo not drawn) [Compound 93-108] | 3.4 | 17.7 | 14.3 | – |
| C/C=C/CN(CCc1ccc(Cl)c(Cl)c1)CC(O)COc1ccc(NS(C)(=O)=O)cc1 (stereo not drawn) [Compound 93-128] | 4.1 | 18.0 | 13.9 | – |
| CS(=O)(=O)Nc1ccc(OCC2CN(CCc3cc(Cl)c(Cl)s3)C(c3c(F)c(F)c(F)c(F)c3F)O2)cc1 (stereo not drawn) [Compound 93-176] | 34.5 | 29.9 | 4.6 | – |
| CC(C(O)c1ccc(O)cc1)N1CCC(Cc2ccccc2)CC1 (stereo not drawn) [Ifenprodil] | – | – | – | decrease in infarct volume [4]: 22%; decrease in infarct volume [5]: 42% |
| OC(CN1CCC(Cc2ccc(F)cc2)CC1)c1ccc(Cl)cc1 (stereo not drawn) [SL 82.0715] | – | – | – | decrease in infarct volume [6]: 36-48% |
| CNC1(c2ccccc2Cl)CCCCC1=O (stereo not drawn) [ketamine] | – | – | – | mean within shaded area (criteria for superior drug performance), NR1/NR2A [7]: fall within the shaded area |
| (+)MK801 | – | – | – | effects on locomotor activity [8]: stereotypical biphasic effects |
